What was measured:
mice = experiment: Acute toxicity, mouse; format: in vivo; conditions: 24 hours; for Number of dead animals/number of test animals: Table 7, 1000 mg/kg p.o.; for Presumed LD50: Table 7, p.o., 1440 min
Method: The acute toxicity of the compounds of the invention was examined by the following method.
Male ddy-strain 5-week old mice and male Wistar-strain 8 week old rats, five per group, were used as experimental animals. Each of the compounds was dissolved in saline and administered perorally, and the toxicity of the compound was assessed 24 hours after the administration.

[1] = tested on: human neuroblastoma cell line GOTO; experiment: Activity on neuroblastoma cell line GOTO (cell number, number and length of neurites); format: cell-based
Method: The biological activities in vitro of the compounds of formula (I) on cells of the nervous system were tested. The cells tested were human neuroblastoma cell line GOTO [see Sekiguchi, M., Oota, T., Sakakibara, K., Inui, N. & Fujii, G., Japan. J. Exp. Med., 49, 67-83 (1979)], and neuroblastoma cell line NB-1 [see Miyake, S., Shimo, Y., Kitamura, T., Nojyo, Y., Nakamura, T., Imkashuku, S. and Abe, T., The Autonomic Nervous System, 10, 115-120 (1973)], and mouse neuroblastoma cell line neuro-2a (Dainippon Pharmaceutical Co., Ltd.) which have been established as the cells of the nervous system. The above neuve cells were grown in an incubator at 37° C. in the presence of 5% carbon dioxide gas exponentially, and then cultivated for a certain period of time together with the compounds of formula (I).
The effect of the compounds of this invention on neuroblastoma cells was examined by the following method.
A culture medium [composed of 45% of RPMI 1640 medium, 45% modified Eagle's medium (MEM) and 10% of fetal calf serum (FCS) and containing penicillin G sodium (100 units/ml) and streptomycin sulfate (100 microgram/ml)] containing neurobalstoma cell line GOTO in the logarithmic growth period was poured in an amount of 2 ml each into polystyrene dishes (35 mm; made by Corning Co.) so that the cell concentration was 2 to 6×10^4 cells per dish, and the cells were cultured for 1 to 2 days in a carbon dioxide gas incubator containing 5% of carbon dioxide gas in air at 37° C. Then, the culture fluid was removed, and 2 ml of a fresh serum-free culture fluid (consisting of 50% of RPMI medium and 50% of MEM medium and containing penicillin G sodium and streptomycin sulfate in the same amounts as above) was added. At the same time, a presterilized PBS solution (phosphate buffered saline) of each of the test compounds in various concentrations was added to each of the dishes. After culturing for 24 hours, the number of living cells was counted. Furthermore, the culture was photographed, and from the photos, the number and length of neurites per cell were measured. The numer of living cells was counted for 3 to 6 dishes by resistance to staining with erythrosine dye. The number and length of the neurites were measured with regard to 6 photos (more than 200 cells per photo).

[2] = tested on: mouse neuroblastoma cell line neuro-2a; experiment: Activity on neuro-2a, cells with outgrown neurites; format: cell-based
Method: In order to examine the effects of the test compounds, the following method was also employed.
Mouse neuro 2a cells in the logarithmic growth period in the Dulbecco's modified Eagle's medium (DMEM) containing 10% FCS was seeded in a 48-well plate so that the number of cells was 1,000 cells/well, and cultured for one day in 0.25 ml of the culture fluid in each well. The culture medium was then replaced by a medium containing each of the test compounds and FCS, and the cells were further cultured for 24 hours. Then, a 4% aqueous glutaraldehyde solution in the same amount as the medium (0.25 ml) was added, and the culture fluid was left to stand at room temperature for 2 hours to fix the cells. After washing with water, a 0.05% aqueous solution of methylene blue was added to stain the cells. Under a microscope, the number of cells containing outgrown neurites (cells having at least one neutrite with a length at least two times as large as the long diameter of the cell) was counted visually, and the proportion of these cells in the entire cells was calculated. The well was observed over 5 or more visual fields (at least 2% of the entire surface area of the well) continuous to the left and right from a mark put at the center of the well, and more than 200 cells was counted. One drug compound was used in 6 different concentrations at most, and three runs were conducted for each concentration.

[3] = Table 3 Run No. 11, 0.1 mM, control 2.5 ± 0.6
[4] = Table 3 second Run No. 5, 1 mM, control 4.5 ± 0.3

CC(=O)N1Cc2nc(N3CCNCC3)ncc2C1=O [Compound 650, 6-Acetyl-2-piperazino-5-oxo-5,6-dihydro(7H)pyrrolo[3,4-d]pyrimidine naphthalene-2-sulfonate]
Number of dead animals/number of test animals (mice): 0/5

CC(C)N1Cc2nc(N3CCNCC3)ncc2C1=O [Compound 628]
Length of neurites (mean ± S.D.) ([1]; Table 1, Run No. 6 by footnote, 1 μg/ml, control 42.48 ± 19.64, all *P <0.01): 55.72 ± 25.08 μm/cell | Number of neurites/cell (mean ± S.D.) ([1]; Table 1, Run No. 6 by footnote, 10 μg/ml, control 1.79 ± 0.80): 2.06 ± 0.81 neurites/cell | Length of neurites (mean ± S.D.) ([1]; Table 1, Run No. 6 by footnote, 10 μg/ml, control 42.48 ± 19.64, all *P <0.01): 53.68 ± 22.36 μm/cell | Number of neurites/cell (mean ± S.D.) ([1]; Table 1, second control group (Run No. 6 by footnote), 1 μg/ml, control 1.79 ± 0.80): 1.90 ± 0.81 neurites/cell

CN1Cc2nc(N3CCNCC3)ncc2C1=O [Compound 608]
Number of dead animals/number of test animals (mice): 0/5 | Presumed LD50 (mice): > 1000 mg/kg p.o.

CCC(=O)N1Cc2nc(N3CCNCC3)ncc2C1=O [Compound 678]
Cells having neurites with a length at least twice the long diameter of cell/total number of cells [2, 3]: 4.1 ± 2.2% | Cells having neurites with a length at least twice the long diameter of cell/total number of cells ([2]; Table 3 Run No. 11, 1 mM, control 2.5 ± 0.6): 16.1 ± 1.6% | Cells having neurites with a length at least twice the long diameter of cell/total number of cells ([2]; Table 3 Run No. 11, 3 mM, control 2.5 ± 0.6): 9.1 ± 2.2% | Number of dead animals/number of test animals (mice): 0/5

O=C1CCCc2nc(N3CCNCC3)ncc2N1 [Compound 502]
Length of neurites (mean ± S.D.) ([1]; Table 1, Run No. 7 by footnote, 1 μg/ml, control 42.20 ± 17.75, all *P <0.01): 52.24 ± 23.92 μm/cell | Number of neurites/cell (mean ± S.D.) ([1]; Table 1, last control group (Run No. 7 by footnote), 1 μg/ml, control 1.77 ± 0.68): 1.99 ± 0.65 neurites/cell | Cells having neurites with a length at least twice the long diameter of cell/total number of cells ([2]; Table 3 Run No. 8, 0.3 mM, control 3.7 ± 0.4): 5.5 ± 2.0% | Cells having neurites with a length at least twice the long diameter of cell/total number of cells ([2]; Table 3 Run No. 8, 1 mM, control 3.7 ± 0.4): 7.8 ± 1.2% | Number of dead animals/number of test animals (mice): 0/5

CCNc1nc(N2CCNCC2)ncc1C(=O)OC [Compound 136]
Number of neurites/cell (mean ± S.D.) ([1]; Table 1 Run No. 2, 1 μg/ml, control 2.06 ± 0.60): 2.14 ± 0.63 neurites/cell | Number of cells (mean ± S.E.) ([1]; Table 1 Run No. 2, 1 μg/ml, control 12.30 ± 1.48): 12.85 ± 2.52 × 10^4 /dish | Length of neurites (mean ± S.D.) ([1]; Table 1 Run No. 2, 1 μg/ml, control 55.00 ± 37.26): 60.24 ± 34.28 μm/cell | Cells having neurites with a length at least twice the long diameter of cell/total number of cells ([2]; Table 3 Run No. 2, 0.1 mM, control 1.9 ± 0.9): 7.2 ± 1.7% | Cells having neurites with a length at least twice the long diameter of cell/total number of cells ([2]; Table 3 Run No. 10, 0.01 mM, control 1.7 ± 0.7): 5.8 ± 1.6% | Cells having neurites with a length at least twice the long diameter of cell/total number of cells ([2]; Table 3 Run No. 10, 0.03 mM, control 1.7 ± 0.7): 16.4 ± 0.9% | Cells having neurites with a length at least twice the long diameter of cell/total number of cells ([2]; Table 3 Run No. 10, 0.1 mM, control 1.7 ± 0.7): 12.6 ± 1.4%

CN1Cc2nc(N3CCNCC3)ncc2C1=O [Compound 606]
Cells having neurites with a length at least twice the long diameter of cell/total number of cells ([2]; Table 3 Run No. 6, 0.1 mM, control 4.4 ± 0.9): 6.9 ± 1.8% | Cells having neurites with a length at least twice the long diameter of cell/total number of cells ([2]; Table 3 Run No. 6, 3 mM, control 4.4 ± 0.9): 11.9 ± 2.1% | Number of dead animals/number of test animals (mice): 0/5 | Presumed LD50 (mice): > 1000 mg/kg p.o.

CN1C(=O)Cc2cnc(N3CCN(Cc4ccc5c(c4)OCO5)CC3)nc21 [Compound 436, 5,6-Dihydro-7-methyl-2[4-(3,4-methylenedioxyphenylmethyl)piperazino]-6-oxo(7H)pyrrolo[2,3-d]pyrimidine]
Cells having neurites with a length at least twice the long diameter of cell/total number of cells ([2]; Table 3 Run No. 9, 0.03 mM, control 2.0 ± 1.0): 14.3 ± 2.9% | Cells having neurites with a length at least twice the long diameter of cell/total number of cells ([2]; Table 3 Run No. 9, 0.1 mM, control 2.0 ± 1.0): 15.6 ± 7.3% | Cells having neurites with a length at least twice the long diameter of cell/total number of cells ([2]; Table 3 Run No. 9, 0.3 mM, control 2.0 ± 1.0): 12.5 ± 6.2%

Cl.c1nc(N2CCNCC2)nc2c1CCO2 [Compound 902, 5,6-Dihydro-2-piperazinofuro[2,3-d]pyrimidine hydrochloride]
Cells having neurites with a length at least twice the long diameter of cell/total number of cells ([2]; Table 3 Run No. 6, 0.01 mM, control 4.4 ± 0.9): 6.9 ± 0.8% | Cells having neurites with a length at least twice the long diameter of cell/total number of cells ([2]; Table 3 Run No. 6, 0.03 mM, control 4.4 ± 0.9): 6.7 ± 0.9% | Cells having neurites with a length at least twice the long diameter of cell/total number of cells ([2]; Table 3 Run No. 6, 1 mM, control 4.4 ± 0.9): 6.7 ± 1.0%

Cc1nc(N2CCNCC2)nc2c1CC(=O)N2C.Cl [Compound 466, 5,6-Dihydro-4,7-dimethyl-6-oxo-2-piperazino(7H)pyrrolo[2,3-d]pyrimidine hydrochloride]
Cells having neurites with a length at least twice the long diameter of cell/total number of cells ([2]; Table 3 second Run No. 5, 0.1 mM, control 4.5 ± 0.3): 5.4 ± 0.3% | Cells having neurites with a length at least twice the long diameter of cell/total number of cells [2, 4]: 13.1 ± 1.4%

CN1C(=O)Cc2cnc(N3CCN(Cc4ccc5c(c4)OCO5)CC3)nc21 [Compound 438, 5,6-Dihydro-7-methyl-2[4-(3,4-methylenedioxyphenylmethyl)piperazino]-6-oxo(7H)pyrrolo[2,3-d]pyrimidine naphthalene-2-sulfonate]
Number of dead animals/number of test animals (mice): 0/5

CCOC(=O)CN1CCN(c2ncc(C(=O)OC)c(NC(C)C)n2)CC1 [Compound 100, Methyl 2-(4-ethoxycarbonylmethylpiperazino)-4-isopropylaminopyrimidine-5-carboxylate]
Number of neurites/cell (mean ± S.D.) ([1]; Table 1, Run No. 7 by footnote, 10 μg/ml, control 1.77 ± 0.68): 2.00 ± 0.79 neurites/cell | Length of neurites (mean ± S.D.) ([1]; Table 1, Run No. 7 by footnote, 10 μg/ml, control 42.20 ± 17.75, all *P <0.01): 56.06 ± 26.47 μm/cell

COCCN1C(=O)Cc2cnc(N3CCNCC3)nc21.O=C(O)/C=C\C(=O)O [Compound 430, 5,6-Dihydro-7-(2-methoxyethyl)-6-oxo-2-piperazino(7H)pyrrolo[2,3-d]pyrimidine maleate]
Cells having neurites with a length at least twice the long diameter of cell/total number of cells ([2]; Table 3 Run No. 4, 0.1 mM, control 3.1 ± 0.2): 7.2 ± 1.9% | Cells having neurites with a length at least twice the long diameter of cell/total number of cells ([2]; Table 3 Run No. 4, 0.5 mM, control 3.1 ± 0.2): 11.7 ± 1.8% | Cells having neurites with a length at least twice the long diameter of cell/total number of cells ([2]; Table 3 Run No. 4, 1 mM, control 3.1 ± 0.2): 13.4 ± 0.4% | Cells having neurites with a length at least twice the long diameter of cell/total number of cells ([2]; Table 3 second Run No. 5, 0.3 mM, control 4.5 ± 0.3): 7.6 ± 0.8% | Cells having neurites with a length at least twice the long diameter of cell/total number of cells [2, 4]: 9.0 ± 0.8%

COc1cc2cnc(N3CCNCC3)nc2cc1OC [Compound 940]
Number of neurites/cell (mean ± S.D.) ([1]; Table 1 Run No. 1, 10 μg/ml, control 2.09 ± 0.61): 2.12 ± 0.60 neurites/cell | Number of cells (mean ± S.E.) ([1]; Table 1 Run No. 1, 10 μg/ml, control 14.34 ± 0.72): 21.55 ± 2.36 × 10^4 /dish | Length of neurites (mean ± S.D.) ([1]; Table 1 Run No. 1, 10 μg/ml, control 70.10 ± 43.03): 77.92 ± 49.91 μm/cell | Cells having neurites with a length at least twice the long diameter of cell/total number of cells [2, 3]: 11.5 ± 0.2% | Cells having neurites with a length at least twice the long diameter of cell/total number of cells ([2]; Table 3 Run No. 11, 0.3 mM, control 2.5 ± 0.6): 17.0 ± 1.2%
